How the values were obtained:
Format in all cases: biochemical
[1] = target: CDK4/cyclin D3 (Homo sapiens, UniProt P11802); assay: Kinase activity assay, Caliper Mobility Shift Assay, CDK4/cyclin D3; conditions: 10 nM kinase, ATP 250 μM, 150 minutes at room temperature
Procedure: (§1) The inhibitory effect of compounds against the kinase CDK4/cyclin D3 was detected by Caliper Mobility Shift Assay method. The final concentration of the compounds to be tested was set at 10 concentrations starting from 1 μM by 3-fold serial dilution. 5 μL of compounds at 5-fold final concentration and 10 μL of CDK4/cyclin D3 kinase solution at a final concentration of 10 nM was added to a 384-well reaction plate, respectively. The plate was pre-incubated for 10 min at room temperature (with negative control wells containing 10 μL of kinase buffer and 5 μL of 5% DMSO; positive control wells containing 10 μL of kinase solution and 5 μL of 5% DMSO). The reaction was initiated by adding 10 μL of ATP at a final concentration of 250 μM and the corresponding substrate peptide mixture at room temperature for 150 minutes. 30 μL of stop detection solution containing EDTA was added to stop the kinase reaction. Caliper EZ Reader was used to read the conversion rate. Inhibition rate %=(average conversion rate of positive control %−conversion rate of sample %)/(average conversion rate of positive control %−average conversion rate of negative control %). wherein: negative control wells represent the conversion rate readings of wells without enzymatic activity; positive control wells represent conversion readings for wells with no compound inhibition. The log(inhibitor) vs. response—Variable slope of the analysis software GraphPad Prism 5 was used with log concentration value as the X-axis and the percent inhibition rate as the Y-axis to fit the dose-response curve, the IC50 value of each compound on the enzyme activity was thus obtained. Calculation formula: Y=Bottom+(Top−Bottom)/(1+10^((Log IC50−X)*HillSlope)).

[2] = target: CDK6/Cyclin D3 (Homo sapiens, UniProt Q00534); assay: Kinase activity assay, CDK6/Cyclin D3 (tested in a similar manner); conditions: tested in a similar manner to CDK4/cyclin D3
CDK6/Cyclin D3, sequence (Q00534 whole entry, species assumed): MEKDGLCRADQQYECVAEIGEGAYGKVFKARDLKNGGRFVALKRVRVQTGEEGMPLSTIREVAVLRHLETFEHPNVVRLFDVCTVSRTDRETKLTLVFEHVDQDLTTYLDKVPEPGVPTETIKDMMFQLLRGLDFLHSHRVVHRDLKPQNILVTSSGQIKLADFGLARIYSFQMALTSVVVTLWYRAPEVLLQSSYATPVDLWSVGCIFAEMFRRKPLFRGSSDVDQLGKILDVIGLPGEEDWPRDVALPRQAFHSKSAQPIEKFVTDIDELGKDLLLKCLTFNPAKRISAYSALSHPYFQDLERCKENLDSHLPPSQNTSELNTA
CDK6/Cyclin D3, sequence (P30281 whole entry partner, species assumed): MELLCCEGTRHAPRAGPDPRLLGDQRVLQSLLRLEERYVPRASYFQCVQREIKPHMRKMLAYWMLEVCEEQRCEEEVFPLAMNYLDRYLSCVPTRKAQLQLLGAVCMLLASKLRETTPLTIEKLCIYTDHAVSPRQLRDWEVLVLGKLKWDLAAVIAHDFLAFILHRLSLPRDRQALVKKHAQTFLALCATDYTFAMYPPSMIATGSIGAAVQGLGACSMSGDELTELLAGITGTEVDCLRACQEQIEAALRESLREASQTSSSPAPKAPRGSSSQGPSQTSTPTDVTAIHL
Procedure: as §1
(§2) The IC50 values for CDK6/Cyclin D3 and CDK2/Cyclin A2 of compounds of the present disclosure were tested in a similar manner.

[3] = target: CDK2/Cyclin A2 (Homo sapiens, UniProt P24941); assay: Kinase activity assay, CDK2/Cyclin A2 (tested in a similar manner); conditions: tested in a similar manner to CDK4/cyclin D3
Procedure: as §1, §2

CDK4/cyclin D3, sequence (P11802 whole entry, species assumed): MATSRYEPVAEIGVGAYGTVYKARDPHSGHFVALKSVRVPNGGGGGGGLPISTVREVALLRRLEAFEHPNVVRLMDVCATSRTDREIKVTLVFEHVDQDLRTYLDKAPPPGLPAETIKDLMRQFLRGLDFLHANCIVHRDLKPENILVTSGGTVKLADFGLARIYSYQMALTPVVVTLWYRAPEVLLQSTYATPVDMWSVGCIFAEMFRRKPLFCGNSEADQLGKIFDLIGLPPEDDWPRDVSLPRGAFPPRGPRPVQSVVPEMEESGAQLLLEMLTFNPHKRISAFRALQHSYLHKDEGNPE
CDK4/cyclin D3, sequence (P30281 whole entry partner, species assumed): as the sequence (P30281 whole entry partner, species assumed) above

| SMILES | IC50 [1] | IC50 [2] | IC50 [3] |
| --- | --- | --- | --- |
| CC(C)c1noc2c1-c1nc(Nc3ccc(N4CCN(C)CC4)c(F)c3)ncc1CC2 [Compound I-39, N-(3-fluoro-4-(4-methylpiperazin-1-yl)phenyl)-9-isopropyl-5,6-dihydroisoxazolo[5,4-H]quinazolin-2-amine] | 6 nM | 17 nM | 11 nM |
| CC(C)c1noc2ccc3cnc(Nc4ccc(N5CCC(CCCO)CC5)cc4)nc3c12 [Compound I-30, 3-(1-(4-((9-isopropylisoxazolo[5,4-h]quinazolin-2-yl)amino)phenyl)piperidin-4-yl)propan-1-ol] | 100 nM | 245 nM | 140 nM |
| CC(C)c1noc2ccc3cnc(Nc4ccc(N5CCNCC5)c(F)c4)nc3c12 [Compound I-33, N-(3-fluoro-4-(piperazin-1-yl)phenyl)-9-isopropylisoxazolo[5,4-H] quinazolin-2-amine] | 3 nM | 7 nM | 10 nM |
| CC(C)c1noc2c1-c1nc(Nc3ccc(N4CCNCC4)c(F)c3)ncc1CC2 [Compound I-38, N-(3-fluoro-4-(piperazin-1-yl)phenyl)-9-isopropyl-5,6-dihydroisoxazolo[5,4-H] quinazolin-2-amine] | 7 nM | 21 nM | 10 nM |
| CC(C)c1noc2ccc3cnc(Nc4ccc(N5CCN(C)CC5)c(F)c4)nc3c12 [Compound I-34] | 3 nM | 9 nM | 12 nM |
| CCN1CCN(c2ccc(Nc3ncc4ccc5onc(C(C)C)c5c4n3)cc2)CC1 [Compound I-28, N-(4-(4-ethylpiperazin-1-yl)phenyl)-9-isopropylisoxazolo[5,4-h] quinazolin-2-amine] | 2 nM | 5 nM | 4 nM |
| CC(C)c1noc2ccc3cnc(Nc4ccc(C(=O)N5CCNCC5)cc4)nc3c12 [Compound I-42, (4-((9-isopropylisoxazolo[5,4-H]quinazolin-2-yl)amino)phenyl) (piperazin-1-yl)methanone] | 3 nM | 9 nM | 5 nM |
| COc1ccc2cc(Nc3ncc4ccc5onc(C(C)C)c5c4n3)ccc2n1 [Compound I-37, 9-isopropyl-N-(2-methoxyquinolin-6-yl)isoxazolo[5,4-H]quinazolin-2-amine] | 34 nM | 68 nM | 82 nM |
| CC(C)c1noc2ccc3cnc(Nc4ccc(N5CCOCC5)cc4F)nc3c12 [Compound I-32, N-(2-fluoro-4-morpholinophenyl)-9-isopropylisoxazolo[5,4-h] quinazolin-2-amine] | 150 nM | 359 nM | 294 nM |
| COc1cc(N2CCN(C)CC2)ccc1Nc1ncc2ccc3onc(C(C)C)c3c2n1 [Compound I-31, 9-isopropyl-N-(2-methoxy-4-(4-methylpiperazin-l-yl)phenyl)isoxazolo [5,4-H]quinazolin-2-amine] | 98 nM | 340 nM | 244 nM |
| CC(C)c1noc2ccc3cnc(Nc4ccc(N5CCOCC5)c(F)c4)nc3c12 [Compound I-36, N-(3-fluoro-4-morpholinophenyl)-9-isopropylisoxazolo[5,4-H] quinazolin-2-amine] | 20 nM | 34 nM | 22 nM |
| CC(C)c1noc2ccc3cnc(Nc4cccc(S(N)(=O)=O)c4)nc3c12 [Compound I-40, 3-((9-isopropylisoxazolo[5,4-h]quinazolin-2-yl)amino)benzenesulfonamide] | 2 nM | 6 nM | 10 nM |
| CC(C)c1noc2ccc3cnc(Nc4ccc(N5CCNCC5)cc4)nc3c12 [Compound I-27, 9-isopropyl-N-(4-(piperazin-1-yl)phenyl)isoxazolo[5,4-H]quinazolin-2-amine] | 3 nM | 8 nM | 6 nM |
| CC(C)c1noc2ccc3cnc(Nc4ccc(OCCN(C)C)cc4)nc3c12 [Compound I-44, N-(4-(2-(dimethylamino)ethoxy)phenyl)-9-isopropylisoxazolo[5,4-h]quinazolin-2-amine] | 2 nM | 4 nM | 10 nM |

Reference: patent US12600731B2, “Isoxazolo[5,4-H]quinazoline compounds as protein kinase inhibitors” (CHENGDU CYNOGEN BIO-PHARMACEUTICAL TECHNOLOGY CO., LTD., priority 2019, dated 2026)
